Laboratory results from patent US20230129438A1, “IMMUNOMODULATING IMINE-OXAZOLINE AZALIDES” (Zoetis Services LLC, priority 2020, published 2023).
Marks after values point to notes of the source that are not given here.

Key:
IL-1β = experiment: Bovine whole blood assay, IL-1β; format: cell-based; conditions: drug concentration giving overstimulation of IL-1β over LPS (cellular toxicity signal)
Protocol: (§1) (protected from light) for 30 minutes.

TNF-α = experiment: Bovine whole blood assay, LPS-induced TNF-α; format: cell-based; conditions: LPS 1 μg/mL
Protocol: as §1

P. multocida 46572 = experiment: In vivo mouse lung infection challenge model (murine efficacy model); conditions: for % Survival: 20 mg/kg subcutaneous, CD-1 mice, intranasal challenge, to Day 10, approximate (~%), harmonized relative to vehicle and M9
[1] = test system: BRD pathogens, M. haemolytica and P. multocida; experiment: In-vitro MIC model, BRD pathogen screening panel; format: cell-based; conditions: asterisk = at least one BRD bacterial isolate

| IC50 (TNF-α) [µM] | SMILES | IL-Iβ OS of LPS (IL-1β) [µM] | % Survival (P. multocida 46572) [%] | MIC flag on Ex# (Table A) [1] | clinical efficacy, in words (P. multocida 46572; P. multocida infection in mice) |
| --- | --- | --- | --- | --- | --- |
| 20 | CCNC[C@]1(O)[C@H](C)O[C@@H](O[C@H]2[C@H](C)[C@@H](O[C@@H]3O[C@H](C)C[C@H]4[C@H]3OC(=Nc3ccccc3)N4C)[C@](C)(O)C[C@@H](C)CN[C@H](C)[C@@H](O)[C@](C)(O)[C@@H](CC)OC(=O)[C@@H]2C)C[C@@]1(C)OC (mixture of isomers) [Example A-3, (E/Z)-(2R,3S,4R,5R,8R,10R,11R,12S,13S,14R)-11-(((3aR,4S,6R,7aS)-1,6-dimethyl-2-(phenylimino)hexahydro-2H-pyrano[4,3-d]oxazol-4-yl)oxy)-2-ethyl-13-(((2R,4R,5S,6S)-5-((ethylamino)methyl)-5-hydroxy-4-methoxy-4,6-dimethyltetrahydro-2H-pyran-2-yl)oxy)-3,4,10-trihydroxy-3,5,8,10,12,14-hexamethyl-1-oxa-6-azacyclopentadecan-15-one] | 5 |  |  |  |
| 15 | CCNC[C@]1(O)[C@H](C)O[C@@H](O[C@H]2[C@H](C)[C@@H](O[C@@H]3O[C@H](C)C[C@H]4[C@H]3OC(=Nc3ccc(OC)cc3)N4C)[C@](C)(O)C[C@@H](C)CN[C@H](C)[C@@H](O)[C@](C)(O)[C@@H](CC)OC(=O)[C@@H]2C)C[C@@]1(C)OC (mixture of isomers) [Example A-12, (E/Z)-(2R,3S,4R,5R,8R,10R,11R,12S,13S,14R)-2-ethyl-13-(((2R,4R,5S,6S)-5-((ethylamino)methyl)-5-hydroxy-4-methoxy-4,6-dimethyltetrahydro-2H-pyran-2-yl)oxy)-3,4,10-trihydroxy-11-(((3aR,4S,6R,7aS)-2-((4-methoxyphenyl)imino)-1,6-dimethylhexahydro-2H-pyrano[4,3-d]oxazol-4-yl)oxy)-3,5,8,10,12,14-hexamethyl-1-oxa-6-azacyclopentadecan-15-one] | 32 |  |  |  |
|  | CC[C@H]1OC(=O)[C@H](C)[C@@H](O[C@H]2C[C@@](C)(OC)[C@](O)(CNC(C)C)[C@H](C)O2)[C@H](C)[C@@H](O[C@@H]2O[C@H](C)C[C@H]3[C@H]2OC(=Nc2ccc(OC)nc2)N3C)[C@](C)(O)C[C@@H](C)CN[C@H](C)[C@@H](O)[C@]1(C)O (mixture of isomers) [Example A-26, (E/Z)-(2R,3S,4R,5R,8R,10R,11R,12S,13S,14R)-2-ethyl-3,4,10-trihydroxy-13-(((2R,4R,5S,6S)-5-hydroxy-5-((isopropylamino)methyl)-4-methoxy-4,6-dimethyltetrahydro-2H-pyran-2-yl)oxy)-11-(((3aR,4S,6R,7aS)-2-((6-methoxypyridin-3-yl)imino)-1,6-dimethylhexahydro-2H-pyrano[4,3-d]oxazol-4-yl)oxy)-3,5,8,10,12,14-hexamethyl-1-oxa-6-azacyclopentadecan-15-one] |  |  | A-26* (an MIC ≤ 64 μg/mL for at least one BRD bacterial isolate) |  |
|  | CC[C@H]1OC(=O)[C@H](C)[C@@H](O[C@H]2C[C@@](C)(OC)[C@](O)(CNCCCOC)[C@H](C)O2)[C@H](C)[C@@H](O[C@@H]2O[C@H](C)C[C@H]3[C@H]2OC(=Nc2ccc(OC)nc2)N3C)[C@](C)(O)C[C@@H](C)CN[C@H](C)[C@@H](O)[C@]1(C)O (mixture of isomers) [Example A-27, (E/Z)-(2R,3S,4R,5R,8R,10R,11R,12S,13S,14R)-2-ethyl-3,4,10-trihydroxy-13-(((2R,4R,5S,6S)-5-hydroxy-4-methoxy-5-(((3-methoxypropyl)amino)methyl)-4,6-dimethyltetrahydro-2H-pyran-2-yl)oxy)-11-(((3aR,4S,6R,7aS)-2-((6-methoxypyridin-3-yl)imino)-1,6-dimethylhexahydro-2H-pyrano[4,3-d]oxazol-4-yl)oxy)-3,5,8,10,12,14-hexamethyl-1-oxa-6-azacyclopentadecan-15-one] |  |  | A-27* (an MIC ≤ 64 μg/mL for at least one BRD bacterial isolate) |  |
| 10 | CCCNC[C@]1(O)[C@H](C)O[C@@H](O[C@H]2[C@H](C)[C@@H](O[C@@H]3O[C@H](C)C[C@H]4[C@H]3OC(=Nc3ccc(OC)cc3)N4C)[C@](C)(O)C[C@@H](C)CN(C)[C@H](C)[C@@H](O)[C@](C)(O)[C@@H](CC)OC(=O)[C@@H]2C)C[C@@]1(C)OC (mixture of isomers) [Example A-30, (E/Z)-(2R,3S,4R,5R,8R,10R,11R,12S,13S,14R)-2-ethyl-3,4,10-trihydroxy-13-(((2R,4R,5S,6S)-5-hydroxy-4-methoxy-4,6-dimethyl-5-((propylamino)methyl)tetrahydro-2H-pyran-2-yl)oxy)-11-(((3aR,4S,6R,7aS)-2-((4-methoxyphenyl)imino)-1,6-dimethylhexahydro-2H-pyrano[4,3-d]oxazol-4-yl)oxy)-3,5,6,8,10,12,14-heptamethyl-1-oxa-6-azacyclopentadecan-15-one] | 16 |  |  |  |
| 7 | CCCNC[C@]1(O)[C@H](C)O[C@@H](O[C@H]2[C@H](C)[C@@H](O[C@@H]3O[C@H](C)C[C@H]4[C@H]3OC(=Nc3ccccc3)N4C)[C@](C)(O)C[C@@H](C)CN(CCC)[C@H](C)[C@@H](O)[C@](C)(O)[C@@H](CC)OC(=O)[C@@H]2C)C[C@@]1(C)OC (mixture of isomers) [Example A-34, (E/Z)-(2R,3S,4R,5R,8R,10R,11R,12S,13S,14R)-11-(((3aR,4S,6R,7aS)-1,6-dimethyl-2-(phenylimino)hexahydro-2H-pyrano[4,3-d]oxazol-4-yl)oxy)-2-ethyl-3,4,10-trihydroxy-13-(((2R,4R,5S,6S)-5-hydroxy-4-methoxy-4,6-dimethyl-5-((propylamino)methyl)tetrahydro-2H-pyran-2-yl)oxy)-3,5,8,10,12,14-hexamethyl-6-propyl-1-oxa-6-azacyclopentadecan-15-one] | 6 |  |  |  |
| 6 | CC[C@H]1OC(=O)[C@H](C)[C@@H](O[C@H]2C[C@@](C)(OC)[C@](O)(CN3CCN(CC)CC3)[C@H](C)O2)[C@H](C)[C@@H](O[C@@H]2O[C@H](C)C[C@H]3[C@H]2OC(=Nc2ccccc2)N3C)[C@](C)(O)C[C@@H](C)CN[C@H](C)[C@@H](O)[C@]1(C)O (mixture of isomers) [Example B-2, (E/Z)-(2R,3S,4R,5R,8R,10R,11R,12S,13S,14R)-11-(((3aR,4S,6R,7aS)-1,6-dimethyl-2-(phenylimino)hexahydro-2H-pyrano[4,3-d]oxazol-4-yl)oxy)-2-ethyl-13-(((2R,4R,5S,6S)-5-((4-ethylpiperazin-1-yl)methyl)-5-hydroxy-4-methoxy-4,6-dimethyltetrahydro-2H-pyran-2-yl)oxy)-3,4,10-trihydroxy-3,5,8,10,12,14-hexamethyl-1-oxa-6-azacyclopentadecan-15-one] | 13 |  |  |  |

| SMILES | IC50 (TNF-α) [µM] | IL-Iβ OS of LPS (IL-1β) [µM] | % Survival (P. multocida 46572) [%] | MIC flag on Ex# (Table A) [1] | clinical efficacy, in words (P. multocida 46572; P. multocida infection in mice) |
| --- | --- | --- | --- | --- | --- |
| CCCNC[C@]1(O)[C@H](C)O[C@@H](O[C@H]2[C@H](C)[C@@H](O[C@@H]3O[C@H](C)C[C@H]4[C@H]3OC(=Nc3ccccc3)N4C)[C@](C)(O)C[C@@H](C)CN[C@H](C)[C@@H](O)[C@](C)(O)[C@@H](CC)OC(=O)[C@@H]2C)C[C@@]1(C)OC (mixture of isomers) [Example A-6, (E/Z)-(2R,3S,4R,5R,8R,10R,11R,12S,13S,14R)-11-(((3aR,4S,6R,7aS)-1,6-dimethyl-2-(phenylimino)hexahydro-2H-pyrano[4,3-d]oxazol-4-yl)oxy)-2-ethyl-3,4,10-trihydroxy-13-(((2R,4R,5S,6S)-5-hydroxy-4-methoxy-4,6-dimethyl-5-((propylamino)methyl)tetrahydro-2H-pyran-2-yl)oxy)-3,5,8,10,12,14-hexamethyl-1-oxa-6-azacyclopentadecan-15-one] | < 5 | 13 | 54 |  |  |
| CC[C@H]1OC(=O)[C@H](C)[C@@H](O[C@H]2C[C@@](C)(OC)[C@](O)(CN3CCN(C)CC3)[C@H](C)O2)[C@H](C)[C@@H](O[C@@H]2O[C@H](C)C[C@H]3[C@H]2OC(=Nc2ccccc2)N3C)[C@](C)(O)C[C@@H](C)CN[C@H](C)[C@@H](O)[C@]1(C)O (mixture of isomers) [Example B-1, (E/Z)-(2R,3S,4R,5R,8R,10R,11R,12S,13S,14R)-11-(((3aR,4S,6R,7aS)-1,6-dimethyl-2-(phenylimino)hexahydro-2H-pyrano[4,3-d]oxazol-4-yl)oxy)-2-ethyl-3,4,10-trihydroxy-13-(((2R,4R,5S,6S)-5-hydroxy-4-methoxy-4,6-dimethyl-5-((4-methylpiperazin-1-yl)methyl)tetrahydro-2H-pyran-2-yl)oxy)-3,5,8,10,12,14-hexamethyl-1-oxa-6-azacyclopentadecan-15-one] | 8 | 13 | 43 |  |  |
| CC[C@H]1OC(=O)[C@H](C)[C@@H](O[C@H]2C[C@@](C)(OC)[C@](O)(CN3CCOCC3)[C@H](C)O2)[C@H](C)[C@@H](O[C@@H]2O[C@H](C)C[C@H]3[C@H]2OC(=Nc2ccc(OC)cc2)N3C)[C@](C)(O)C[C@@H](C)CN[C@H](C)[C@@H](O)[C@]1(C)O (mixture of isomers) [Example B-4, (E/Z)-(2R,3S,4R,5R,8R,10R,11R,12S,13S,14R)-2-ethyl-3,4,10-trihydroxy-13-(((2R,4R,5S,6S)-5-hydroxy-4-methoxy-4,6-dimethyl-5-(morpholinomethyl)tetrahydro-2H-pyran-2-yl)oxy)-11-(((3aR,4S,6R,7aS)-2-((4-methoxyphenyl)imino)-1,6-dimethylhexahydro-2H-pyrano[4,3-d]oxazol-4-yl)oxy)-3,5,8,10,12,14-hexamethyl-1-oxa-6-azacyclopentadecan-15-one] | < 5 | 13 | 37 |  | clinically efficacious |
